Measured values published in patent US20140005163A1 (NOVARTIS AG, priority 2010, published 2014).

Tests used:
[1] = tested on: PKB Ser473 phosphorylation in Rat1-myr-HA-p110 alpha cells; assay: Reverse protein array assay, PKB Ser473 phosphorylation in Rat1-myr-p110 alpha cells; format: cell-based; details: 0.5 h, pAkt Ser473, 30 minutes compound incubation, read-out: p-PKB IC50
How it was run: (§1)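 Compound exposure lasted 30 min in Rat1 cells bearing membrane-targeted HA-p110 isoforms, using 8 serial concentrations. Arrayed lysates, each spotted at four dilutions, gave relative fluorescence signals for phospho-Ser473 PKB.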

[2] = biological target: T1, mTOR (Homo sapiens, UniProt P42345); assay: Biochemical assay for m-TOR by TR-FRET; details: 8 μM ATP, 400 nM GFP-4EBP1, 0.5 nM mTOR
T1 construct: purchased Invitrogen Corporation (Carlsbad/CA, USA) PV4753
T1 sequence (P42345 1360-2549 limits assumed): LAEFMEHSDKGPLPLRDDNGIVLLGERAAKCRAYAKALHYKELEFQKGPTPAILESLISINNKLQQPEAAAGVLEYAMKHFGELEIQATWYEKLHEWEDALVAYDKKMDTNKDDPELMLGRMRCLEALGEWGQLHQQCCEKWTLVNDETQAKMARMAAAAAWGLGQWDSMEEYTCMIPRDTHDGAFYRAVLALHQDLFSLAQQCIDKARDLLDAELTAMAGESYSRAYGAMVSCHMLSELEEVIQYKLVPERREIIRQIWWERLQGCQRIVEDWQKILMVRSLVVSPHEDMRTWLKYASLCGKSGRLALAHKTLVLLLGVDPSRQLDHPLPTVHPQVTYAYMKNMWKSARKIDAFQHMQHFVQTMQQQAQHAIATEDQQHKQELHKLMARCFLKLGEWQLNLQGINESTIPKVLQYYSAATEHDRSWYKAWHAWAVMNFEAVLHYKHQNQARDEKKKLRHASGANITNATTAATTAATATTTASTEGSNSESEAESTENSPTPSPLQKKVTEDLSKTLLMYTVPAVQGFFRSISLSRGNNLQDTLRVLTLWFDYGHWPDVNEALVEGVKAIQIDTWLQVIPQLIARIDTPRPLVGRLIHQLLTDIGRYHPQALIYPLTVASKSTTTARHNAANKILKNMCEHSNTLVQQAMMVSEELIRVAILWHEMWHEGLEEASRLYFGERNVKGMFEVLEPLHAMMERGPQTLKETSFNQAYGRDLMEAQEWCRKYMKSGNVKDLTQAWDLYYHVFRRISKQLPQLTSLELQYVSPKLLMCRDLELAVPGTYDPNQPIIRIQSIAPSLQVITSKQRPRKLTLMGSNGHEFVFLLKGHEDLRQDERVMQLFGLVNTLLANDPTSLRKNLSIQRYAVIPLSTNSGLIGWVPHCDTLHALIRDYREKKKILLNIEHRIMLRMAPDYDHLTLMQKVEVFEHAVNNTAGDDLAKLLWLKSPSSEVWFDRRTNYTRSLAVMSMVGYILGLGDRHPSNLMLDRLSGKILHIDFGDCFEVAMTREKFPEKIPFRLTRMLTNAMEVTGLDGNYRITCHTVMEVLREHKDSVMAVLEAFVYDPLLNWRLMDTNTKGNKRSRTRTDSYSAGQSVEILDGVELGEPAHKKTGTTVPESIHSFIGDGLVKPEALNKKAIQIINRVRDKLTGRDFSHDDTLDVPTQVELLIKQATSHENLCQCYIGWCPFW
How it was run: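 Enzyme 0.5 nM, GFP-4EBP1 400 nM, ATP 8 μM (all final); 50 mM HEPES pH 7.5, 10 mM MnCl2, 1 mM DTT; rt. Detection: Tb-α-p4EBP1 [pT46] 0.5 nM in EDTA, TR-FRET, 15 min. Reference compound on every plate, 16-point duplicate dilutions.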

[3] = tested on: PKB Ser473 phosphorylation in Rat1-myr-HA-p110 delta cells; assay: Reverse protein array assay, PKB Ser473 phosphorylation in Rat1-myr-p110 delta cells; format: cell-based; details: read-out: p-PKB IC50
How it was run: as §1

[4] = tested on: PKB Ser473 phosphorylation in Rat1-myr-HA-p110 beta cells; assay: Reverse protein array assay, PKB Ser473 phosphorylation in Rat1-myr-p110 beta cells; format: cell-based; details: 0.5 h, pAkt Ser473, 30 minutes incubation, read-out: p-PKB IC50
How it was run: as §1

Structure (SMILES)	IC50 [1]	IC50 [2]	IC50 [3]	IC50 [4]
COc1ccc(-c2ccc3ncc4c(c3c2)n(-c2c(C)nn(C)c2C)c(=O)n4C)cn1 [Example 2.4, 8-(6-Methoxy-pyridin-3-yl)-3-methyl-1-(1,3,5-trimethyl-1H-pyrazol-4-yl)-1,3-dihydro-imidazo[4,5-c]quinolin-2-one]	65 nM	448 nM	882 nM	386 nM
CCOc1ccc(-c2ccc3ncc4c(c3c2)n(-c2cn(C)nc2C)c(=O)n4C)cn1 [Example 3.1, 1-(1,3-Dimethyl-1H-pyrazol-4-yl)-8-(6-ethoxy-pyridin-3-yl)-3-methyl-1,3-dihydro-imidazo[4,5-c]quinolin-2-one]	24 nM	11 nM	42 nM	20 nM
CCOc1ccc(-c2ccc3ncc4c(c3c2)n(-c2cn(CC(=O)N3CCOCC3)nc2C)c(=O)n4C)cn1 [Example 3.10, 8-(6-Ethoxy-pyridin-3-yl)-3-methyl-1-[3-methyl-1-(2-morpholin-4-yl-2-oxo-ethyl)-1H-pyrazol-4-yl]-1,3-dihydro-imidazo[4,5-c]quinolin-2-one]	59 nM	18 nM	84 nM	70 nM
CCOc1ccc(-c2ccc3ncc4c(c3c2)n(-c2c(C)nn(CC(=O)N(C)C)c2C)c(=O)n4C)cn1 [Example 3.12, 2-{4-[8-(6-Ethoxy-pyridin-3-yl)-3-methyl-2-oxo-2,3-dihydro-imidazo[4,5-c]quinolin-1-yl]-3,5-dimethyl-pyrazol-1-yl}-N,N-dimethyl-acetamide]	128 nM	548 nM	211 nM	166 nM
CCn1cc(-n2c(=O)n(C)c3cnc4ccc(-c5ccc(N(C)C)nc5)cc4c32)c(C)n1 [Example 4.2, 8-(6-Dimethylamino-pyridin-3-yl)-1-(1-ethyl-3-methyl-1H-pyrazol-4-yl)-3-methyl-1,3-dihydro-imidazo[4,5-c]quinolin-2-one]	14 nM	15 nM	44 nM	19 nM
Cc1nn(C)c(C)c1-n1c(=O)n(C)c2cnc3ccc(-c4ccc(N(C)C)nc4)cc3c21 [Example 4.3, 8-(6-Dimethylamino-pyridin-3-yl)-3-methyl-1-(1,3,5-trimethyl-1H-pyrazol-4-yl)-1,3-dihydro-imidazo[4,5-c]quinolin-2-one]	68 nM	543 nM	787 nM	615 nM
Cc1nn(C(C)C)cc1-n1c(=O)n(C)c2cnc3ccc(-c4ccc(N5CCC5)nc4)cc3c21 [Example 5.2, 8-(6-Azetidin-1-yl-pyridin-3-yl)-1-(1-isopropyl-3-methyl-1H-pyrazol-4-yl)-3-methyl-1,3-dihydro-imidazo[4,5-c]quinolin-2-one]	14 nM	13 nM	27 nM	22 nM
Cc1nn(C)cc1-n1c(=O)n(C)c2cnc3ccc(-c4cnc(N(C)C)nc4)cc3c21 [Example 6.2, 8-(2-Dimethylamino-pyrimidin-5-yl)-1-(1,3-dimethyl-1H-pyrazol-4-yl)-3-methyl-1,3-dihydro-imidazo[4,5-c]quinolin-2-one]	32 nM	43 nM	76 nM	47 nM
Cc1ccc(-c2ccc3ncc4c(c3c2)n(-c2cn(C)nc2C)c(=O)n4C)cn1 [Example 7.2, 1-(1,3-Dimethyl-1H-pyrazol-4-yl)-3-methyl-8-(6-methyl-pyridin-3-yl)-1,3-dihydro-imidazo[4,5-c]quinolin-2-one]	14 nM	34 nM	28 nM	35 nM
Cc1cc(-n2c(=O)n(C)c3cnc4ccc(-c5ccc(C(F)(F)F)nc5)cc4c32)n(C)n1 [Example 8.2, 1-(2,5-Dimethyl-2H-pyrazol-3-yl)-3-methyl-8-(6-trifluoromethyl-pyridin-3-yl)-1,3-dihydro-imidazo[4,5-c]quinolin-2-one]	192 nM	677 nM	412 nM	326 nM
COc1cncc(-c2ccc3ncc4c(c3c2)n(-c2cn(C)nc2C)c(=O)n4C)c1 [Example 12, 1-(1,3-Dimethyl-1H-pyrazol-4-yl)-8-(5-methoxy-pyridin-3-yl)-3-methyl-1,3-dihydro-imidazo[4,5-c]quinolin-2-one]	37 nM	17 nM	79 nM	38 nM
CNC(=O)c1ccc(-c2ccc3ncc4c(c3c2)n(-c2cn(C)nc2C)c(=O)n4C)cn1 [Example 15.1, 5-[1-(1,3-Dimethyl-1H-pyrazol-4-yl)-3-methyl-2-oxo-2,3-dihydro-1H-imidazo[4,5-c]quinolin-8-yl]-pyridine-2-carboxylic acid methylamide]	25 nM	13 nM	91 nM	21 nM
Cc1nn(C(C)C)cc1-n1c(=O)n(C)c2cnc3ccc(-c4ccc(CO)nc4)cc3c21 [Example 16.3, 8-(6-hydroxymethyl-pyridin-3-yl)-1-(1-isopropyl-3-methyl-1H-pyrazol-4-yl)-3-methyl-1,3-dihydro-imidazo[4,5-c]quinolin-2-one]	67 nM	45 nM	125 nM	39 nM
CCn1cc(-n2c(=O)n(C)c3cnc4ccc(-c5cnc(OC)nc5)cc4c32)c(C)n1 [Example 17.1, 1-(1-Ethyl-3-methyl-1H-pyrazol-4-yl)-8-(2-methoxy-pyrimidin-5-yl)-3-methyl-1,3-dihydro-imidazo[4,5-c]quinolin-2-one]	73 nM	59 nM	103 nM	57 nM
COc1ncc(-c2ccc3ncc4c(c3c2)n(-c2cn(C)nc2C)c(=O)n4C)cn1 [Example 17.2, 1-(1,3-Dimethyl-1H-pyrazol-4-yl)-8-(2-methoxy-pyrimidin-5-yl)-3-methyl-1,3-dihydro-imidazo[4,5-c]quinolin-2-one]	19 nM	68 nM	58 nM	40 nM
COc1ncc(-c2ccc3ncc4c(c3c2)n(-c2cn(C)nc2Cl)c(=O)n4C)cn1 [Example 17.3, 1-(3-Chloro-1-methyl-1H-pyrazol-4-yl)-8-(2-methoxy-pyrimidin-5-yl)-3-methyl-1,3-dihydro-imidazo[4,5-c]quinolin-2-one]	21 nM	12 nM	28 nM	22 nM
Cc1nn(C)cc1-n1c(=O)n(C)c2cnc3ccc(-c4ccc(N)nc4)cc3c21 [Example 23.1, 8-(6-Amino-pyridin-3-yl)-1-(1,3-dimethyl-1H-pyrazol-4-yl)-3-methyl-1,3-dihydro-imidazo[4,5-c]quinolin-2-one]	13 nM	4 nM	26 nM	7 nM
Cc1nn(C(C)C)cc1-n1c(=O)n(C)c2cnc3ccc(-c4ccc(N)nc4)cc3c21 [Example 23.2, 8-(6-Amino-pyridin-3-yl)-1-(1-isopropyl-3-methyl-1H-pyrazol-4-yl)-3-methyl-1,3-dihydro-imidazo[4,5-c]quinolin-2-one]	11 nM	7 nM	18 nM	6 nM
Cc1nn(C)c(C)c1-n1c(=O)n(C)c2cnc3ccc(-c4cccc(O)c4)cc3c21 [Example 32.2, 8-(3-Hydroxy-phenyl)-3-methyl-1-(1,3,5-trimethyl-1H-pyrazol-4-yl)-1,3-dihydro-imidazo[4,5-c]quinolin-2-one]	221 nM	–	366 nM	725 nM
CCOc1cncc(-c2ccc3ncc4c(c3c2)n(-c2c(C)cnn2C)c(=O)n4C)c1 [Example 56.5, 1-(2,4-Dimethyl-2H-pyrazol-3-yl)-8-(5-ethoxy-pyridin-3-yl)-3-methyl-1,3-dihydro-imidazo[4,5-c]quinolin-2-one]	846 nM	763 nM	–	–
COCCn1c(=O)n(C)c2ncc(-c3ccc4ncc5c(c4c3)n(-c3cn(C)nc3C)c(=O)n5C)cc21 [Example 69, 1-(1,3-Dimethyl-1H-pyrazol-4-yl)-8-[1-(2-methoxy-ethyl)-3-methyl-2-oxo-2,3-dihydro-1H-imidazo[4,5-b]pyridin-6-yl]-3-methyl-1,3-dihydro-imidazo[4,5-c]quinolin-2-one]	755 nM	639 nM	810 nM	–
Cc1nn(C)cc1-n1c(=O)n(C)c2cnc3ccc(-c4cnc5c(c4)nc(N(C)C)n5C)cc3c21 [Example 70, 8-(2-Dimethylamino-3-methyl-3H-imidazo[4,5-b]pyridin-6-yl)-1-(1,3-dimethyl-1H-pyrazol-4-yl)-3-methyl-1,3-dihydro-imidazo[4,5-c]quinolin-2-one]	–	81 nM	275 nM	176 nM
CCc1ncc(-c2ccc3ncc4c(c3c2)n(-c2cn(C)nc2C)c(=O)n4C)cc1NC(C)C [Example 162, 1-(1,3-Dimethyl-1H-pyrazol-4-yl)-8-(6-ethyl-5-isopropylamino-pyridin-3-yl)-3-methyl-1,3-dihydro-imidazo[4,5-c]quinolin-2-one]	< 5 nM	3 nM	–	< 5 nM
Cc1nn(CCO)cc1-n1c(=O)n(C)c2cnc3ccc(-c4cncc(N5CCOCC5)c4)cc3c21 [Example 175.3, 1-[1-(2-Hydroxy-ethyl)-3-methyl-1H-pyrazol-4-yl]-3-methyl-8-(5-morpholin-4-yl-pyridin-3-yl)-1,3-dihydro-imidazo[4,5-c]quinolin-2-one]	344 nM	19 nM	–	692 nM
